# Test results: patent US10202349B2, “Asymmetric bis-acridines with antitumour activity and their uses” (POLITECHNIKA GDAŃSKA, priority 2015, dated 2019)
# What was measured:
# DU-145 = test: Cytotoxic activity in vitro, SRB; format: cell-based, human
# How it was run: (§1)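 Human tumour cells are exposed to the bis-acridines, and growth is then quantified by sulforhodamine B staining as recommended by the NCI. The EC50 values derive from comparison with control cells and mark half-maximal inhibition of proliferation.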
# HCT-116 = test: Cytotoxic activity in vitro, SRB; format: cell-based, human
# How it was run: as §1
# PANC-1 = test: Cytotoxic activity in vitro, SRB; format: cell-based, human
# How it was run: as §1
# H-460 = test: Cytotoxic activity in vitro, SRB; format: cell-based, human
# How it was run: as §1
# UM-UC-3 = test: Cytotoxic activity in vitro, SRB; format: cell-based, human
# How it was run: as §1
# MDA-MB-231 = test: Cytotoxic activity in vitro, SRB; format: cell-based, human
# How it was run: as §1
# MiaPaCa-2 = test: Cytotoxic activity in vitro, SRB; format: cell-based, human
# How it was run: as §1
# AsPC-1 = test: Cytotoxic activity in vitro, SRB; format: cell-based, human
# How it was run: as §1
# PC-3 = test: Cytotoxic activity in vitro, SRB; format: cell-based, human
# How it was run: as §1
# MCF-7 = test: Cytotoxic activity in vitro, SRB; format: cell-based, human
# How it was run: as §1
# HCT 116 = test: Anti-neoplasmic activity against xenograft in hairless mice; format: in vivo
# How it was run: (§2)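 TGI calculated as 100−(ΔVT/ΔVC×100), using mean volume change from therapy start in treated versus control mice. Xenografts: s.c. 5×10^6 cells, female Crl:Nu-Foxn1nu mice aged 5 weeks. Compounds dosed i.v. twice weekly for 4 weeks at three doses; tumours measured twice weekly.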
# PANC 1 = test: as above; format: in vivo
# How it was run: (§3)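 Human tumour cells (5×10^6 per mouse) implanted subcutaneously in 5-week female nude mice; randomised at ~100–200 mm^3 tumour volume. Dosing i.v. or i.p., twice weekly (thrice for fast growers) over 4 weeks, three dose levels. Growth inhibition computed from volume change versus controls.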
# PC 3 = test: as above; format: in vivo; conditions: series 15, i.v., single 1 mg/kg, total 8 mg/kg, day 39
# How it was run: as §3
# DU 145 = test: as above; format: in vivo
# How it was run: as §3
# H 460 = test: as above; format: in vivo
# How it was run: as §3
# HT-29 = test: Cytotoxic activity in vitro, SRB; format: cell-based, human
# How it was run: as §1
# BxPC-3 = test: Cytotoxic activity in vitro, SRB; format: cell-based, human
# How it was run: as §1
# MDA MB 231 = test: Anti-neoplasmic activity against xenograft in hairless mice; format: in vivo; conditions: series 19, i.v., single 1 mg/kg, total 8 mg/kg, day 50
# How it was run: as §2
# UM UC 3 = test: as above; format: in vivo; conditions: series 11, i.v., day 23
# How it was run: as §2
# Capan-2 = test: Cytotoxic activity in vitro, SRB; format: cell-based, human
# How it was run: as §1
# Mia Pa Ca 2 = test: Anti-neoplasmic activity against xenograft in hairless mice; format: in vivo; conditions: series 12, i.v., single 2 mg/kg, total 16 mg/kg, day 26
# How it was run: as §2
Compound,EC50 (DU-145),EC50 (HCT-116),EC50 (PANC-1),EC50 (H-460),EC50 (UM-UC-3),EC50 (MDA-MB-231),EC50 (MiaPaCa-2),EC50 (AsPC-1),EC50 (PC-3),EC50 (MCF-7),EC50 (HT-29),EC50 (BxPC-3),also measured
"O=c1c2ccccc2[nH]c2c([N+](=O)[O-])ccc(NCCCN3CCN(CCCNc4c5ccccc5nc5cccc([N+](=O)[O-])c45)CC3)c12 [C-2031, 1-[3-(4-nitro-9(10H)-acridono-1-yl)aminopropyl]-4-[3′-(1′-nitroacridin-1-yl)-aminopropyl]piperazine]",0.011 µM,0.02 µM,0.056 µM,0.009 µM,0.017 µM,0.028 µM,0.028 µM,0.078 µM,0.026 µM,0.077 µM,–,–,"TGI [%] [100 − (ΔVT/ΔVC × 100] (HCT 116; series 8, i.v., single 6 mg/kg, total 18 mg/kg, day 14, *at least half of animals did not survive): 52* %; TGI [%] [100 − (ΔVT/ΔVC × 100] (HCT 116; series 9, i.v., single 3 mg/kg, total 24 mg/kg, day 30): 34%; TGI [%] [100 − (ΔVT/ΔVC × 100] (PANC 1; series 10, i.v., single 3 mg/kg, total 30 mg/kg, day 45): 72%; TGI [%] [100 − (ΔVT/ΔVC × 100] (PANC 1; series 14, i.v., single 1 mg/kg, total 10 mg/kg, day 37): 27%; TGI [%] [100 − (ΔVT/ΔVC × 100] (PC 3): 30%; TGI [%] [100 − (ΔVT/ΔVC × 100] (DU 145; series 13, i.v., single 4 mg/kg, total 32 mg/kg, day 35): 77%; TGI [%] [100 − (ΔVT/ΔVC × 100] (DU 145; series 18, i.p., single 1 mg/kg, total 8 mg/kg, day 64): 81%; TGI [%] [100 − (ΔVT/ΔVC × 100] (H 460; series 6, i.v., single 8 mg/kg, total 48 mg/kg, day 23): 60%"
"Cc1ccc(NCCCN2CCN(CCCNc3c4ccccc4nc4cccc([N+](=O)[O-])c34)CC2)c2c(=O)c3ccccc3[nH]c12 [C-1973, 1-[3-(4-methyl-9(10H)-acridono-1-yl)aminopropyl]-4-3′-[(1′-nitroacridin-1-yl)-aminopropyl]piperazine]",0.02 µM,0.019 µM,0.027 µM,0.005 µM,0.0095 µM,0.028 µM,0.016 µM,0.079 µM,0.048 µM,0.113 µM,0.023 µM,0.059 µM,"TGI [%] [100 − (ΔVT/ΔVC × 100] (MDA MB 231): 30%; TGI [%] [100 − (ΔVT/ΔVC × 100] (PANC 1; series 31, i.v., single 2 mg/kg, total 16 mg/kg, day 37): 75%; TGI [%] [100 − (ΔVT/ΔVC × 100] (UM UC 3; single 2 mg/kg, total 14 mg/kg): 46%; TGI [%] [100 − (ΔVT/ΔVC × 100] (DU 145; series 13, i.v., single 4 mg/kg, total 32 mg/kg, day 63): 90%; TGI [%] [100 − (ΔVT/ΔVC × 100] (DU 145; series 18, i.v., single 1 mg/kg, total 8 mg/kg, day 33): 51%; TGI [%] [100 − (ΔVT/ΔVC × 100] (H 460; series 16, i.v., single 2 mg/kg, total 10 mg/kg, day 21): 42%"
"O=c1c2cc(O)ccc2n2cnc3ccc(NCCCN4CCN(CCCNc5c6ccccc6nc6cccc([N+](=O)[O-])c56)CC4)c1c32 [C-2027, 1-[3-(8-hydroxy-imidazo[4,5,1-de]-acridin-6-on-5-yl)aminopropyl]-4-[3′-(1′-nitroacridin-1-yl)-aminopropyl]piperazine]",0.02 µM,0.02 µM,0.024 µM,0.017 µM,0.018 µM,0.019 µM,0.021 µM,0.191 µM,0.035 µM,0.062 µM,0.081 µM,0.164 µM,"EC50 (Capan-2): 0.043 µM; TGI [%] [100 − (ΔVT/ΔVC × 100] (HCT 116; series 7, i.v., single 2.5 mg/kg, total 15 mg/kg, day 15): 15%; TGI [%] [100 − (ΔVT/ΔVC × 100] (PANC 1; series 10, i.v., single 2 mg/kg, total 10 mg/kg, day 45): 83%; TGI [%] [100 − (ΔVT/ΔVC × 100] (PANC 1; series 14, i.v., single 1 mg/kg, total 10 mg/kg, day 45): 23%; TGI [%] [100 − (ΔVT/ΔVC × 100] (PANC 1; series 30, i.v., single 1 mg/kg, total 8 mg/kg, day 32, *at least half of animals did not survive): 51* %; TGI [%] [100 − (ΔVT/ΔVC × 100] (Mia Pa Ca 2): 29%; TGI [%] [100 − (ΔVT/ΔVC × 100] (UM UC 3; single 4 mg/kg, total 28 mg/kg): 47%"
